Measurements from US20230149378A1, “Aminothiolester compounds or pharmaceutically acceptable salts thereof, for use for the treatment of cancer” (ADVANCED BIODESIGN, priority 2015, published 2023).
Values belong to the compound of their own block, whether it stands above or below them.

Legend:
HL-60 (leukemia) = assay: Alamar blue growth inhibition, cell line HL60; assay type: cell-based; conditions: Homo sapiens
Experimental: (§1) Cells were seeded into 96-well cell culture plates at concentrations required to ensure approximately 80% confluence in control (untreated cells) at the end of experiment (0.5×10^4-5×10^4 cell/well). The sensitivity towards S-methyl 4-(dimethylamino)-4-methylpent-2-ynethioate was determined using different concentrations of the drug (from 0.01 to 100 μM). After 48 hours, the growth-inhibitory effect of the drug was analyzed using Alamar blue, according to manufactures instructions. The Alamar Blue assay was used based on earlier observations: similar results were found with Alamar blue, tetrazolium reduction (XTT assay). To ensure good data quality and to minimize impact of pipetting errors, each particular drug concentration was assessed based on mean fluorescence intensity from 8 separate wells. The drug response was quantified by the half maximal inhibitory concentration (IC50) for each particular cell line, and determined by non-linear regression analysis of log-dose/response curves. Cut-off value for resistance to S-methyl 4-(dimethylamino)-4-methylpent-2-ynethioate was determined statistically (>2 S.D. above the IC50 geometric mean). The in-vitro threshold value for hypersensitivity to the drug has been defined as <IC50 geometric mean.
(§2) In addition, other compounds according to the invention were tested by following the above mentioned material and method on the cell line DU145 (prostatic cancer line) and the cell line HL60 (leukemia) mentioned in Table 2.

[1] = test system: DU145 (prostatic cancer line); assay: Alamar blue growth inhibition, cell line DU145; assay type: cell-based; conditions: Homo sapiens, DU-145
Experimental: as §1, §2

Colo357 cells [2] = assay: Measurement of GSH level (GSH-Glo); assay type: cell-based; conditions: 100 μM, FIG. 8(A)
Experimental: (§3) Cells were seeded in 96-well black walled plate (5×10^4 cells/mL) and incubated overnight for attachment. The cells were treated either with vehicle, DMSO, BCNU 100 μM, S-methyl 4-(dimethylamino)-4-methylpent-2-ynethioate 20 μM, for 24 hours. The total glutathione was measured according to the instructions of the kit (GSH-Glo™, Promega) and results were obtained for 25 000 cells.

resistant cells (MSC) [3] = assay: MDA-adducts ELISA, resistant cells; assay type: cell-based, human; conditions: 5 or 10 μmol·L^−1 during 24 hours, FIG. 10
Experimental: (§4) The formation of HNE-adducts and MDA-adducts was quantified with the Oxiselect HNE Adduct Elisa kit (Cell Biolabs, San Diego, Calif.) and the OxiSelect MDA Adduct ELISA Kit (Cell Biolabs), respectively. Briefly, after a treatment with S-methyl 4-(dimethylamino)-4-methylpent-2-ynethioate during 24 hours, cells were lysed by sonication in reducing SDS Sample Buffer. Homogenates were diluted to 10 μg protein/mL and adsorbed in 96-well protein binding plates by incubation at 37° C. for at least 2 hours. Wells were washed twice with PBS and incubated for an additional 2 hours at room temperature on an orbital shaker. Following three washes in PBS, 100 μL of anti-HNE antibody or anti-MDA antibody were added to the wells and incubated for 1 hour at room temperature. Subsequently, goat anti-rabbit secondary antibody-HRP conjugate (diluted 1/1000 with the assay diluent) was added and incubation continued for 1 hour. Wells were washed five times in PBS and HRP-substrate was added. Reaction was stopped with an acidic solution, and absorbance read on a microplate reader at 450 nm. The level of HNE-adducts and of MDA-adducts was determined by comparison with a standard curve prepared from HNE-BSA and MDA-BSA standards supplied by the manufacturer. […]

[4] = test system: hMCSs-BM (Human mesenchymal stem cells from bone marrow); assay: Alamar blue growth inhibition, normal human primary cells; assay type: cell-based; conditions: 48 hours
Experimental: as §1
(§5) In addition, to control the selectivity of the S-methyl 4-(dimethylamino)-4-methylpent-2-ynethioate toward cancer cells, the compound according to the invention was also tested on normal cells by using the same method as the one described above.

[5] = test system: HPF (Human Pulmonary fibroblasts); assay: as above; assay type: cell-based; conditions: Pulmonary fibroblast, 48 hours
Experimental: as §1, §5

[6] = test system: NHEM (Normal Human epidermal melanocytes); assay: as above; assay type: cell-based; conditions: Melanocyte, 48 hours
Experimental: as §1, §5

[7] = test system: huvec (Human umbilical vein endothelial cells); assay: as above; assay type: cell-based; conditions: 48 hours
Experimental: as §1, §5

[8] = test system: BEAS-2B (Human bronchial epithelial cells); assay: as above; assay type: cell-based; conditions: 48 hours
Experimental: as §1, §5

[9] = test system: sensitive cells (HL-60, NT2/D1); assay: HNE-adducts ELISA, sensitive cells; assay type: cell-based, human; conditions: 5 or 10 μmol·L^−1 during 24 hours, FIG. 10
Experimental: as §4

[10] = test system: cancer cell lines which overproduce H2O2; assay: Viability assay (resazurin, XTT or MTT) on various cancer cell lines; assay type: cell-based, human; conditions: FIG. 1
Experimental: A panel of 52 human tumor cells representing 10 tissue types has been selected to cover a broad set of different oncogenes and according to their response to different standard chemotherapeutics. […]
as §1, with “The Alamar Blue assay was used based on earlier observations: similar results were found with Alamar blue, tetrazolium reduction (XTT assay).” left out, “The in-vitro threshold value for hypersensitivity to the drug has been defined as <IC50 geometric mean.” left out

HL-60 cells [11] = assay: Viability of HL-60 cells with NAC or GSH-MEE (induction of resistance); assay type: cell-based
Experimental: To revert S-methyl 4-(dimethylamino)-4-methylpent-2-ynethioate-induced cell death, drug sensitive cells HL-60 were exposed to S-methyl 4-(dimethylamino)-4-methylpent-2-ynethioate (10 μM) in the presence of the reduced glutathione analog Glutathione Monoethyl Ester (GSH-MEE) at concentrations 10 mM or S-methyl 4-(dimethylamino)-4-methylpent ynethioate in combination. HL-60 were seeded, into 96-wells plate, at a concentration of 5×10^4 cells/well in 100 μL of complemented medium supplemented with Glutathione Monoethyl Ester (GSH-MEE) 10 mM. After 90 minutes incubation, cells were washed with PBS and cells were incubated using different concentrations of the drug (from 0.01 to 100 μM). After 24 h and 48 h cell viability was measure using the Rezasurin assay as described above.

Colo357 cells [12] = assay: Viability of Colo357 cells treated with BCNU; assay type: cell-based; conditions: Colo357 cells treated with 100 μM carmustine (BCNU); FIG. 8(B)
[13] = test system: sensitive cells (HL-60, NT2/D1); assay: MDA-adducts ELISA, sensitive cells; assay type: cell-based, human; conditions: 5 or 10 μmol·L^−1 during 24 hours, FIG. 10
Experimental: as §4

HL60 cancers cells = assay: Measurement of H2O2 production (Total ROS/superoxide detection kit); assay type: cell-based, human; conditions: FIG. 6(A)
Experimental: Intracellular H2O2 production in live cells was measured using Total ROS/superoxide detection kit (Enzo life science), following the manufacturer's instructions. The assay uses specific H2O2/RNS probes that upon reaction with H2O2 and RNS species were oxidized rapidly to highly fluorescent compounds. Fluorescence intensity is proportional to the total H2O2/RNS levels within the sample. […] The day before the analysis, cells were seeded in 96-well black/clear bottom plates at a density of 2×10^4 in culture media according to cell suppliers instructions, supplemented with FBS (10% v/v), 10 units of penicillin/mi and […] of streptomycin. Cells were kept at 37° C. in a humid atmosphere of 95% air: 5% CO2 overnight. On the day of the analysis, cells media was replaced by 100 μL of phenol free-media supplemented as above, without any treatment, with S-methyl 4-(dimethylamino)-4-methylpent-2-ynethioate for 6 hours, vehicle HEPES for 6 hours, or with NAC for 20 min. […] Several wells were left without cells for the background fluorescence control measurements. Plates were read using fluorescence microplate reader (ex=560 nm, Em=600). Data were expressed as the change in arbitrary fluorescence units produced from equal amounts of cells and normalized to total protein input.

resistant cells (MSC) [14] = assay: HNE-adducts ELISA, resistant cells; assay type: cell-based, human; conditions: 5 or 10 μmol·L^−1 during 24 hours, FIG. 10
Experimental: as §4

normal cells = assay: Selectivity control on normal cells; assay type: cell-based, human; conditions: same method as cancer cells
Experimental: as §1, with “mean. […]” for “mean.”

HL-60 cells [15] = assay: Measurement of GSH level (GSH-Glo); assay type: cell-based, human; conditions: HL-60 cells treated with 2.5 mM NAC; FIG. 6(B)
Experimental: as §3

[16] = Aruoma et al 1989; cited from earlier work
[17] = Aruoma et al 1989; cited from earlier work; remark: listed apart in the source

- IC50 (HL-60 (leukemia)): 30 µM
- IC50 [1]: 9.3 µM
Structure (SMILES): CSC(=O)C#CC(C)(C)N1CCOCC1 [S-methyl 4-methyl-4-(morpholin-4-yl)pent-2-ynethioate]

- IC50 (HL-60 (leukemia)): 7.21 µM
- IC50 [1]: 22 µM
Structure (SMILES): CSC(=O)C#CC(C)(C)N1CCCCC1 [S-methyl 4-methyl-4-(piperidin-1-yl)pent-2-ynethioate]

- IC50 (HL-60 (leukemia)): 24.8 µM
- IC50 [1]: 12.5 µM
Structure (SMILES): CSC(=O)C#CC(C)(C)N(C)c1ccccc1 [S-methyl 4-methyl-4-[methyl(phenyl)amino]pent-2-ynethioate]

Structure (SMILES): O=NN(CCCl)C(=O)NCCCl [carmustine]
- decrease of the GSH level (Colo357 cells [2]): 50%

Structure (SMILES): CSC(=O)C#CC(C)(C)N(C)C [S-methyl 4-(dimethylamino)-4-methylpent-2-ynethioate]
- IC50 (HL-60 (leukemia)): 7.6 µM
- MDA-adducts level (resistant cells (MSC) [3]): < 100 ng per μg of total protein
- IC50 [4]: > 50 µM
- IC50 [5]: > 100 µM
- IC50 [6]: > 100 µM
- IC50 [7]: > 50 µM
- IC50 [8]: > 50 µM
- HNE-adducts level [9]: > 1 μg per μg of total protein
- efficacy in cancer cell lines (viability assay) [10]: effective
- viability of HL-60 cells (HL-60 cells [11]; 5, 10 μmol·L-1 and 2.5 mM NAC, FIG. 6(C)): inhibition of efficacy
- cytotoxic effect on HL-60 cells (HL-60 cells [11]; after pre-treatment of 10 mM GSH-MEE, FIG. 7): no more effective
- decrease of viability (Colo357 cells [12]): 50%
- MDA-adducts level [13]: above 100 ng per μg of total protein
- IC50 [1]: 7.2 µM
- H2O2 activity level in Relative Fluorescence Unit (RFU) (HL60 cancers cells; HL60, 5 μM for 24 hours): increased
- H2O2 activity level in Relative Fluorescence Unit (RFU) (HL60 cancers cells; HL60, treatment in addition with 2.5 mM N-acetyl-Cysteine (NAC)): no H2O2 increase
- HNE-adducts level (resistant cells (MSC) [14]): < 1 μg per μg of total protein
- effect on normal cells (normal cells): no effect

Structure (SMILES): CC(=O)N[C@@H](CS)C(=O)O [NAC, N-acetyl-L-cysteine]
- amount of GSH level (HL-60 cells [15]): significantly increased
- rate constant, reaction with hydrogen peroxide [16]: 0.38 M^−1, s^−1
- rate constant, scavenging of hydroxy radicals [17]: 1.36×10^10 M^−1,s^−1

- IC50 (HL-60 (leukemia)): 10.4 µM
- IC50 [1]: 1.4 µM
Structure (SMILES): CSC(=O)C#CC(C)(C)N(C)Cc1ccccc1 [S-methyl 4-[benzyl(methyl)amino]-4-methylpent-2-ynethioate]
